Laboratory results: US12527833B2, “Pharmaceutical composition made from hydrophobic phytochemicals dispersed in sesame oil to enhance bioactivity” (ARJUNA NATURAL PVT. LTD., priority 2017, dated 2026)

Columns and labels:
[1] = tested on: Carrageenan induced paw edema; assay: Carrageenan paw edema in rats: blends of Boswellia extract with edible oils (Example 7); format: in vivo
Method: The animals were housed in polypropylene cages and maintained under standard animal house conditions (12:12 hour light/dark cycle at 24±2° C. and 45-65% relative humidity). The rats had free access to standard pellet diet and water. 24 rats were divided into 8 groups comprising of 3 rats in each group. The rats were deprived of food, but had free access to drinking water for 12 h prior to the experiment. The treatment was as follows: After 12 hour fasting, baseline paw volume was recorded for each rat using digital plethysmometer (Ugo Basile, […]). Carrageenan (0.1 ml of 1%) in saline (0.9% NaCl) was injected into the plantar surface of the right hind paw of the animals. The experimental groups were given the designated extract/standard orally, 30 minutes prior to the injection of the carrageenan. After injection of carrageenan, paw volume was recorded at 3 hr. to 6 hr. post carrageenan. The edema was expressed as an increase in the volume of paw from baseline value, and the percentage of inhibition for each rat was calculated. Each composition of boswellia was obtained through standard mixing of boswellia extract with vegetable oil. • Group 1: 10 mg/Kg Diclofenac. • Group 2: 82 mg/Kg Hydrophobic blend of Boswellia extract (10% AKBA) with sesame oil (2:3). • Group 3: 82 mg/Kg Hydrophobic Boswellia extract (10% AKBA) with coconut oil (2:3). • Group 4: 82 mg/Kg Hydrophobic Boswellia extract (10% AKBA) with olive oil (2:3). • Group 5: 82 mg/Kg Hydrophobic Boswellia extract (10% AKBA) with rice bran (2:3). • Group 6: 82 mg/Kg Hydrophobic Boswellia extract (10% AKBA) with Cotton seed oil (2:3). • Group 7: 82 mg/Kg Hydrophobic Boswellia extract (10% AKBA) with Boswellia fat (2:3). • Group 8: 50 mg/Kg Homogenized dispersion hydrophobic Boswellia extract with 10% AKBA with sesame oil with 10% sesame lignans. (BS-4).

[2] = tested on: Carrageenan induced paw edema; assay: Carrageenan paw edema in rats: Boswellia dispersion at different SSA values (Example 9); format: in vivo
Method: The animals were housed in polypropylene cages and maintained under standard animal house conditions (12:12 hour light/dark cycle at 24±2° C. and 45-65% relative humidity). The rats had free access to standard pellet diet and water. 15 rats were divided into 5 groups comprising of 3 rats in each group. The rats were deprived of food, but had free access to drinking water for 12 h prior to the experiment. The treatment was as follows: After 12 hour fasting, baseline paw volume was recorded for each rat using digital plethysmometer (Ugo Basile, […]). Carrageenan (0.1 ml of 1%) in saline (0.9% NaCl) was injected into the plantar surface of the right hind paw of the animals. The experimental groups were given the designated extract/standard orally, 30 minutes prior to the injection of the carrageenan. After injection of carrageenan, paw volume was recorded at 3 hr to 6 hr post carrageenan. The edema was expressed as an increase in the volume of paw from baseline value, and the percentage of inhibition for each rat was calculated. • Group 1: 50 mg/Kg BS-1 (SSA 200-500 m^2/kg). • Group 2: 50 mg/Kg, BS-2 (SSA 700-1000 m^2/kg) • Group 3: 50 mg/Kg BS-3 (SSA 1100-1200 m^2/kg) • Group 4: 50 mg/Kg BS-4 (SSA>1300 m^2/kg) • Group 5: 10 mg/Kg Diclofenac.

SMILES: O=C(O)Cc1ccccc1Nc1c(Cl)cccc1Cl [Diclofenac]
- Avrage percentage inhibition ([1]; average of 3HR and 6HR, doses as in table): 68.3%
- Percentage inhibition (%) 3HR ([1]; paw edema 3 hr post carrageenan, oral 30 min before, Diclofenac 10, oil blends 82, BS-4 50 mg/kg): 66.67%
- Percentage inhibition (%) 6HR ([1]; paw edema 6 hr post carrageenan, oral 30 min before, Diclofenac 10, oil blends 82, BS-4 50 mg/kg): 69.94%
- Percentage inhibition (%) 3HR ([2]; 3 hr post carrageenan, oral, BS samples 50 mg/kg, Diclofenac 10 mg/kg): 68%
- Percentage inhibition (%) 6HR ([2]; 6 hr post carrageenan, oral, BS samples 50 mg/kg, Diclofenac 10 mg/kg): 94%
- Avrage percentage inhibition ([2]; average of 3HR and 6HR): 81%
